These are literature values, as cited in US20240299430A1, “METHODS AND COMPOSITIONS FOR TREATING LONG COVID-19” (Intrinsic Medicine, Inc., priority 2021, published 2024).

In data set [1] the test system is murine and human derived macrophages stimulated with LPS and various pro-inflammatory cytokines. Conditions: in vitro.
Data set [2] concerns PDL1, COX2 and select chemokines, such as CCL2 (MCP1) and CCL5.
The test system of data set [3] is mouse models of rheumatoid arthritis. The following applies: administered orally, LPS challenge.

In the case of `CC(=O)N[C@H]1[C@H]([C@H](O)[C@H](O)CO)O[C@@](OC[C@H]2O[C@@H](O[C@H]3[C@H](O)[C@@H](O)[C@H](O)O[C@@H]3CO)[C@H](O)[C@@H](O)[C@H]2O)(C(=O)O)C[C@@H]1O` [6′SL, 6′-sialyllactose], the “effect on IL-1β, IL-2, IL-4, IL-6, IL-12, IFN γ or TNF-α” value in data set [1] was “reductions”.

For `CC(=O)N[C@H]1C([C@H](O)[C@H](O)CO)O[C@@](O[C@@H]2C(O)[C@H](O[C@@H]3C(CO)O[C@@H](O)C(O)[C@H]3O)OC(CO)[C@@H]2O)(C(=O)O)C[C@H]1O` (some centres unmarked) [3′SL, 3′-sialyllactose], in data set [2], the “effect on PDL1, COX2 and chemokines CCL2 (MCP1) and CCL5” value was “reduce”. In data set [1], the “effect on IL-1β, IL-2, IL-4, IL-6, IL-12, IFN γ or TNF-α” value is on record as “reductions” and the “extent of cytokine reduction, 3′-SL compared with 6′SL” value is “more significant reductions”.

Regarding sialyllactose, the “clinical assessments of disease” value in data set [3] is listed as “benefit in clinical assessments of disease”.
